≈ marks a conversion by molar mass, not a printed value.
tested on: Mycobacterium tuberculosis; experiment: Antimicrobial activity against Mycobacterium tuberculosis ATCC […] by Almar blue assay; assay type: functional

| Structure (SMILES) | MIC [mg/L] |
| --- | --- |
| COc1ccc(/C=C/C(=O)NNC(=O)c2ccncc2)cc1 | 3.12 (≈ 10.5 µM) |
| O=C(/C=C/c1ccccc1)NNC(=O)c1ccncc1 | 3.12 (≈ 11.7 µM) |
| O=C(/C=C/c1ccc(Cl)cc1Cl)NNC(=O)c1ccncc1 | > 100 |
| NNC(=O)c1ccncc1 [ISONIAZID] | 0.2 (≈ 1.46 µM) |
| O=C(/C=C/c1ccc([N+](=O)[O-])cc1)NNC(=O)c1ccncc1 | 3.12 (≈ 9.99 µM) |
| O=C(/C=C/c1ccc([N+](=O)[O-])cc1)NNC(=O)c1ccccc1 | > 100 |
| O=C(/C=C/c1ccccc1)NNC(=O)c1ccccc1 | 50 (≈ 188 µM) |
| O=C(/C=C/c1ccc2c(c1)OCO2)NNC(=O)c1ccccc1 | 25 (≈ 80.6 µM) |
| O=C(/C=C/c1ccc(Cl)cc1Cl)NNC(=O)c1ccccc1 | > 100 |
| O=C(/C=C/c1ccc2c(c1)OCO2)NNC(=O)c1ccncc1 | 3.12 (≈ 10 µM) |
| COc1ccc(/C=C/C(=O)NNC(=O)c2ccccc2)cc1 | 12.5 (≈ 42.2 µM) |
